# Experimental data from patent US9365540B2, “Benzimidazole derivatives as MCH receptor antagonists” (Takeda Pharmaceutical Company Limited, priority 2012, dated 2016).
# Experiments:
# [1] = target: T1, human MCH receptor 1 (MCHR1) (Homo sapiens, UniProt Q99705); test: human MCH receptor 1 (MCHR1) competitive binding assay with [125I]-MCH(4-19); details: test compound 0.1 μM, human MCHR1-expressing CHO cell membrane fraction, read-out: Binding inhibition rate % (0.1 μM)
# T1 construct: expressed in transfected cells; host or cells: CHO cell clone 57 (membrane fraction)
# Summary of the method: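 Percent binding inhibition by 0.1 μM test compound, corrected for nonspecific binding defined with unlabeled MCH(1-19), is read by scintillation after filtration onto PEI-treated GF/C filters. The reaction runs 1 hr at room temperature with [125I]-MCH(4-19) and human MCHR1-CHO cell membranes in Tris-HCl pH 7.5 buffer containing EDTA and protease inhibitors.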
# human MCHR1 = target: T2, human MCHR1 (Homo sapiens, UniProt Q99705); test: MCH receptor 1 antagonistic activity, Ca2+ mobilization assay; type: cell-based; details: CHO, test compound 0.1 μM; human MCHR1-expressing CHO cells (clone #4); ligand MCH(4-19) 2 nM; read-out: Inhibitory rate % (0.1 μM)
# T2 construct: expressed in transfected cells; host or cells: CHO dhfr- cells, clone #4
# Summary of the method: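 CHO dhfr− cells stably expressing human MCHR1 (clone #4) were used in a fluorometric Ca2+ mobilization assay. Test compounds were run at 0.1 μM, with antagonism expressed as percent inhibition.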
# HepG2 cells = test: PLsis (phospholipidosis) inducing potential, NBD-PE uptake; type: cell-based; details: 24 hr exposure, relative value to 10 μM Amiodarone, maximum value per unit concentration
# Protocol: Evaluation of PLsis Inducing Potential
# DMEM medium, L-glutamine, penicillin-streptomycin, pyruvic acid, and N-(7-nitrobenz-2-oxa-1,3-diazol-4-yl)-1,2-hexadecanoyl-sn-glycero-3-phosphoethanolamine triethylammonium salt (NBD-PE) were purchased from Invitrogen Corporation. As bovine serum albumin (BSA), a product of Thermo Trace Ltd. (Melbourne, Australia) was used, and as Amiodarone, a product of ICN (Costa Mesa, Calif.) was used. A test compound was used in the form of a 10 mM DMSO solution.
# FBS was added at a final concentration of 5 vol % to DMEM medium supplemented with L-glutamine, pyruvic acid and penicillin-streptomycin and subjected to the experiment. Culture was performed using 5% carbon dioxide gas-95% air as a gas phase in a CO2 incubator at 37° C. HepG2 cells were suspended in a culture medium at 50×10^4 cells/mL, plated in a 96 well plate at 50 μL/well and precultured for 24 hr. After preculture, the culture medium was removed, a culture medium containing 60 μM NBD-PE was added at 50 μL/well, and a culture medium containing 0.6 μM or 20 μM test compounds were each added at 50 μL/well to HepG2 cells, and the cells were cultured for 24 hr. As a positive control, Amiodarone was used at a final concentration of 10 μM.
# After exposure to the test compound for 24 hr, the fluorescence intensity (Ex. 485 nm, Em. 538 nm) of NBD-PE uptaken by the cells was measured by a fluorometer. The measurement value with addition of 0 μM test compound solution was subtracted as a blank, a relative value to the measurement 5 value with addition of 10 μM Amiodarone was calculated, and the maximum value per unit concentration of the test compound was obtained as a phospholipidosis (PLsis) inducing potential.
# T2 sequence (Q99705 whole entry): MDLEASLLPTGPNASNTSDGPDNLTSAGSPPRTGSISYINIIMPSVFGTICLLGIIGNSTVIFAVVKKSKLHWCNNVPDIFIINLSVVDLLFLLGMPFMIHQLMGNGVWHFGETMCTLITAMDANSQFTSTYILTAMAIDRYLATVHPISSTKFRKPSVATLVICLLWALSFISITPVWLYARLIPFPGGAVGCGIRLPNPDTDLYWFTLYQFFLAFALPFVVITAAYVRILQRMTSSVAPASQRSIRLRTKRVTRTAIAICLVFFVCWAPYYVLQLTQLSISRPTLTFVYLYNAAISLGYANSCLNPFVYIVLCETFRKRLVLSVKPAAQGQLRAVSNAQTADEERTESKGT
# T1 sequence (Q99705 whole entry): as above
structure (smiles),measurement,setting,value
"Cn1c(C2CC2)nc2ccc(-n3ccc(OCc4ccc(F)cc4)cc3=O)cc21 [Example 2, 1-(2-Cyclopropyl-1-methyl-1H-benzimidazol-6-yl)-4-((4-fluorobenzyl)oxy)pyridin-2(1H)-one]",inhibition at 0.1 µM,[1],80%
same,inhibition at 0.1 µM,human MCHR1,99%
same,PLsis inducing potential,HepG2 cells,2.2
"CCc1nc2ccc(-n3ccc(OCc4ccc(F)cc4)cc3=O)cc2n1C [Example 63, 1-(2-Ethyl-1-methyl-1H-benzimidazol-6-yl)-4-((4-fluorobenzyl)oxy)pyridin-2(1H)-one]",inhibition at 0.1 µM,[1],74%
same,inhibition at 0.1 µM,human MCHR1,100%
same,PLsis inducing potential,HepG2 cells,1.6
"Cc1nc2ccc(-n3ccc(OCc4ccc(F)cc4)cc3=O)cc2n1C [Example 254, 1-(1,2-Dimethyl-1H-benzimidazol-6-yl)-4-((4-fluorobenzyl)oxy)pyridin-2(1H)-one]",inhibition at 0.1 µM,[1],57%
same,inhibition at 0.1 µM,human MCHR1,95%
same,PLsis inducing potential,HepG2 cells,1.7
